These results are taken from patent US11753403B2, “EIF4E inhibitors and uses thereof” (PIC Therapeutics, Inc., priority 2020, dated 2023).

Structures are written as SMILES.

What is called IC50 is the concentration at which inhibition is half-maximal. A lower IC50 goes with higher potency.

Chain of Human eIF4E (aa 28-217) / biotin labeled 4G2 peptide (P06730 28-217): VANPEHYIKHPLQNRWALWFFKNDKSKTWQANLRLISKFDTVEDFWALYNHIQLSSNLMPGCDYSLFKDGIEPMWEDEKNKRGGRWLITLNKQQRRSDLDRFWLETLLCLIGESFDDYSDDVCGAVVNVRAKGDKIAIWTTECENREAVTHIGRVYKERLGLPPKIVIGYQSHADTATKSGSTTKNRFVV

The experiment addresses Human eIF4E (aa 28-217) / biotin labeled 4G2 peptide (Homo sapiens (Human), UniProt P06730). In words: Human eIF4E/4G2 binding assay (TR-FRET). The following applies: Human eIF4E/4G2 TR-FRET binding assay; head says IC50, legend says EC50. The procedure:
Example 5. Compound Testing in Human eIF4E/4G2 Binding Assay
Human eIF4E (aa 28-217) with a C-terminal His-tag was expressed in E. coli in inclusion bodies. The protein was solubilized with 8 M urea and purified under denaturing conditions using nickel-charged HisTrap HP columns (GE Healthcare). The purified protein was then refolded by diluting in 20 mM Hepes pH 7.0, 0.5 M NaCl, 1 mM DTT, 1 mM EDTA, 0.5 M arginine plus 6 M urea, and then dialyzing overnight into the same buffer without the urea. The protein was further dialyzed into 20 mM Hepes, pH 6.5, 50 mM NaCl, 1 mM EDTA, 1 mM DTT, and concentrated using Hitrap SP sepharose FF columns (GE Healthcare). The concentrated protein was dialyzed into 20 mM Hepes, pH 7.0, 0.5M NaCl, 5 mM DTT and 10% glycerol, and stored at −80° C. until use.
Test compounds (3.43 mM stock in DMSO) were diluted 2-fold in series in DMSO (10 concentration points). Compound solutions (1.2 μl/well) were added into black 384-well polypropylene microplates (Matrix, Thermal Scientific). Twenty-two microliters per well of Assay Buffer (50 mM NaPi, pH 6.5, 50 mM KCl, 1 mM DTT and 0.5 mg/ml gamma globulin) and eight microliters per well of 82.5 nM purified eIF4E in Assay Buffer were added. The samples were incubated at room temperature (20-23° C.) for 4 hours. Biotin labeled 4G2 peptide (Ac-Lys-Gln-Tyr-Asp-Arg-Glu-Phe-Leu-Leu-Asp-Phe-Gln-Phe-Met-Pro-Lys(Aha-Bio)-NH2, 1.75 μM stock in DMSO) was diluted to 0.14 μM in Assay Buffer (without DTT) and 5 μl/well was added. The samples were incubated at room temperature for 20 min. Five microliters per well of 6.4 nM Eu-streptavidin (Eu-SA, Perkin Elmer) and 80 nM Allophycocyanin (APC)-anti His antibody (Columbia Biosciences) in Assay Buffer (without DTT) were then added and the samples were incubated at room temperature for 20 min.
Assay signals were monitored by reading excitation at 340 nm and emission fluorescence at 615 nm and 665 nm on an Envision reader (Perkin Elmer). Normalized TR-FRET (time-resolved fluorescence resonance energy transfer) assay signal (Rn) was calculated by the formula: Rn=[(A−Ba−C×D)/(D−Bd)]×(Dc−Bd) Where A is the fluorescence intensity of the sample at 665 nm, • D is the fluorescence intensity of the sample at 615 nm, • Ba and Bd are plate backgrounds at 665 nm and 615 nm, respectively, • Dc is the fluorescence intensity of 0.78 nM Eu-SA in the assay buffer at 615 nm The cross-talk factor (C) is determined by the following formula: C=(Ac−Ba)/(Dc−Bd) Where Ac is the fluorescence intensity of 0.78 nM Eu-SA in the assay buffer at 665 nm.
IC50 values were calculated using xLFit program (IDBS). Table 2 below lists EC50 of some compounds, wherein A represents EC50≤1 uM; B represents 1 uM<EC50≤10 uM; and C represents EC50>10 uM.
Background: Time-resolved FRET reads energy transfer from a long-lived donor to a nearby acceptor.
As to `CC(C)Cc1sc(N(CCC(=O)O)Cc2cccc(C(=O)NCCN)c2)nc1-c1ccc(Cl)c(Cl)c1` [I-205, 3-((3-(2-aminoethylcarbamoyl)benzyl)(4-(3,4-dichlorophenyl)-5-isobutylthiazol-2-yl)amino)propanoic acid], the IC50 is greater than 10000 nM. The value for `CC(C)Cc1sc(N(CCNC(=N)N)Cc2ccccc2)nc1-c1ccc(Cl)c(Cl)c1` [I-232, 2-(2-(benzyl(4-(3,4-dichlorophenyl)-5-isobutylthiazol-2-yl)amino)ethyl)guanidine] was 1000 to 10000 nM; that for `Cc1c(-c2ccccc2)sc(C(=O)O)c1Nc1nc(-c2ccc(Cl)c(Cl)c2)c(CC(C)C)s1` [I-275] was no more than 1000 nM; that for `CC(C)Cc1sc(N(CCC(=O)O)CCc2ccccc2)nc1-c1ccc(Cl)c(Cl)c1` [I-52] was no more than 1000 nM. `CC(C)Cc1sc(N(CCC(=O)O)Cc2ccccc2O)nc1-c1ccc(Cl)c(Cl)c1` [I-50] registered a concentration for half-maximal inhibition (IC50) of 1000 to 10000 nM.

The compound `CC(C)c1sc(NCC(Cc2cccc3[nH]ccc23)C(=O)O)nc1-c1ccc(Cl)c(Cl)c1` (stereo not shown) [I-8] yielded an IC50 of 1000 to 10000 nM. The value for `CC(C)c1sc(Nc2ncc(-c3ccccc3)cc2C(=N)N)nc1-c1ccc(Cl)c(Cl)c1` [I-285] was greater than 10000 nM.

Consider `CC(C)Cc1sc(Nc2ncc(C(F)(F)F)cc2C(=O)O)nc1-c1ccc2ccccc2c1` [I-321], for which the IC50 was no more than 1000 nM. `COCCN(CCC(=O)O)c1nc(-c2ccc(Cl)c(Cl)c2)c(CC(C)C)s1` [I-67]: the concentration for half-maximal inhibition (IC50) lay in the range of 1000 to 10000 nM.

The compound `CC(C)c1sc(Nc2ncccc2C(=O)O)nc1-c1ccc(Cl)c(Cl)c1` [I-258] came in with an IC50 of no more than 1000 nM. The value for `CC(C)c1sc(Nc2ncccc2C(=N)N)nc1-c1ccc(Cl)c(Cl)c1` [I-284, 2-(4-(3,4-dichlorophenyl)-5-isopropylthiazol-2-ylamino)nicotinimidamide] was greater than 10000 nM; that for `CC(C)Cc1sc(N(CCCN(C)C)CCC(=O)O)nc1-c1ccc(Cl)c(Cl)c1` [I-71] was greater than 10000 nM. In the case of `CC(C)Cc1sc(Nc2cc(C(C)(C)C)sc2C(=O)O)nc1-c1ccc(Cl)c(Cl)c1` [I-274] it was no more than 1000 nM; in that of `CC(C)c1sc(NCC(Cc2cccc3cc[nH]c23)C(=O)O)nc1-c1ccc(Cl)c(Cl)c1` (stereo not shown) [I-7, 2-((1H-indol-7-yl)methyl)-3-(4-(3,4-dichlorophenyl)-5-isopropylthiazol-2-ylamino) propanoic acid], no more than 1000 nM; in that of `COc1cc(CC(CNc2nc(-c3ccc(Cl)c(Cl)c3)c(CC(C)C)s2)C(=O)O)ccn1` (stereo not shown) [I-165], 1000 to 10000 nM. For the compound `CC(C)Cc1sc(N(CCC(=O)O)Cc2ccccc2)nc1-c1ccc(S(C)(=O)=O)cc1` [I-128, 3-(benzyl(5-isobutyl-4-(4-(methylsulfonyl)phenyl)thiazol-2-yl)amino)propanoic acid], the IC50 was greater than 10000 nM. The value for `CC(C)c1sc(NCC(Cc2c[nH]c3ccccc23)C(=O)O)nc1-c1ccc(Cl)c(Cl)c1` (stereo not shown) [I-9] was 1000 to 10000 nM; that for `COc1ccc(-c2nc(Nc3ncc(-c4cccs4)cc3C(=O)O)sc2CC(C)C)cc1` [I-333] was no more than 1000 nM.

For the compound `COc1ccc(-c2nc(Nc3ncc(C(F)(F)F)cc3C(=O)O)sc2C(C)C)cc1Cl` [I-326], the concentration for half-maximal inhibition (IC50) was no more than 1000 nM. In turn, `CC(C)Cc1sc(N(CCCO)CCC(=O)O)nc1-c1ccc(Cl)c(Cl)c1` [I-70] yielded an IC50 of 1000 to 10000 nM. Consider `CC(C)Cc1sc(N(CCC(=O)O)Cc2cccc(F)c2)nc1-c1ccc(Cl)c(Cl)c1` [I-51], for which the 50% inhibitory concentration (IC50) was no more than 1000 nM. Regarding `CC(C)Cc1sc(Nc2ccsc2C(=O)O)nc1-c1ccc(Cl)c(Cl)c1` [I-256], the IC50 is no more than 1000 nM.

Turning to `CC(C)c1sc(NCC(Cc2cccc(F)c2)C(=O)O)nc1-c1ccc(Cl)c(Cl)c1` (stereo not shown) [I-5], the IC50 is 1000 to 10000 nM.

The compound `CC(C)Cc1sc(Nc2cc(C(=O)O)cc(C(F)(F)F)c2)nc1-c1ccc(Cl)c(Cl)c1` [I-213] yielded an IC50 of no more than 1000 nM.

`O=C(O)C(CNc1nc(-c2ccc(Cl)c(Cl)c2)c(C2CCC2)s1)Cc1ccccc1` (stereo not shown) [I-178] yielded an IC50 of 1000 to 10000 nM. The compound `CC(C)Cc1sc(N(CCC(=O)NCc2ncc[nH]2)Cc2ccccc2)nc1-c1ccc(Cl)c(Cl)c1` [I-195] displayed an IC50 greater than 10000 nM. Compound `CC(C)c1sc(Nc2ncc(-c3ccccc3)cc2C(=O)O)nc1-c1ccc(Cl)c(Cl)c1` [I-259, 2-(4-(3,4-dichlorophenyl)-5-isopropylthiazol-2-ylamino)-5-phenylnicotinic acid] gave an IC50 of no more than 1000 nM. In the case of `CC(C)Cc1sc(Nc2nccc(-c3ccccc3)c2C(=O)O)nc1-c1ccc(Cl)c(Cl)c1` [I-241], the IC50 was no more than 1000 nM.

Take `COc1cccc(-c2nc(NCC(Cc3cccc4cc[nH]c34)C(=O)O)sc2C(C)C)c1` (stereo not shown) [I-34]: the IC50 fell in the range of 1000 to 10000 nM. Consider `O=C(O)c1cccc(-c2nc(Cc3ccc(Cl)c(Cl)c3)cs2)c1` [I-223, 3-(4-(3,4-dichlorobenzyl)thiazol-2-yl)benzoic acid], for which the IC50 is 1000 to 10000 nM. Compound `CC(C)c1sc(NCC(Cc2ccccc2)C(=O)O)nc1-c1ccc(Cl)c(Cl)c1` (stereo not shown) [I-1, 2-benzyl-3-(4-(3,4-dichlorophenyl)-5-isopropylthiazol-2-ylamino)propanoic acid] yielded an IC50 of no more than 1000 nM. `CC(C)Cc1sc(N2CCN(C(=O)c3ccccc3)C(C(=O)O)C2)nc1-c1ccc(Cl)c(Cl)c1` (stereo not shown) [I-246, 1-benzoyl-4-(4-(3,4-dichlorophenyl)-5-isobutylthiazol-2-yl)piperazine-2-carboxylic acid] returned an IC50 of 1000 to 10000 nM. `CCOC(=O)c1sc(NCC(Cc2ccccc2)C(=O)O)nc1-c1ccc(Cl)c(Cl)c1` (stereo not shown) [I-182, 2-benzyl-3-(4-(3,4-dichlorophenyl)-5-(ethoxycarbonyl)thiazol-2-ylamino)propanoic acid]: the IC50 lay within 1000 to 10000 nM.

For the compound `CC(C)Cc1sc(N(CCC(=O)O)Cc2ccccc2)nc1-c1cccnc1` [I-83], the IC50 was greater than 10000 nM. `CC(C)Cc1sc(N(CCC(=O)O)CCc2cccc(Cl)c2)nc1-c1ccc(Cl)c(Cl)c1` [I-94]: the IC50 was no more than 1000 nM. In turn, `CC(C)c1sc(Nc2ncc(-c3cccc(F)c3)cc2C(=O)O)nc1-c1ccc(Cl)c(Cl)c1` [I-266] came in with an IC50 of no more than 1000 nM.

Compound `CC(C)Cc1sc(NCC(Cc2ccc3[nH]ccc3c2)C(=O)O)nc1-c1ccc(Cl)c(Cl)c1` (stereo not shown) [I-27] came in with an IC50 of no more than 1000 nM.

`CC(C)c1sc(NCC(Cc2cccc3c2OCO3)C(=O)O)nc1-c1ccc(Cl)cc1` (stereo not shown) [I-39] gave an IC50 of 1000 to 10000 nM. In the case of `O=C(O)C(CNc1nc(-c2ccc(Cl)c(Cl)c2)c(C2CC2)s1)Cc1cccc2[nH]ccc12` (stereo not shown) [I-16] it was 1000 to 10000 nM; in that of `COc1cccc(-c2nc(NCC(Cc3ccc4[nH]ccc4c3)C(=O)O)sc2C(C)C)c1` (stereo not shown) [I-37], 1000 to 10000 nM. In the case of `CC(C)Cc1sc(Nc2cc(-c3cccc(Cl)c3)sc2C(=O)O)nc1-c1ccc(Cl)c(Cl)c1` [I-272] it was no more than 1000 nM; in that of `CC(C)Cc1sc(NCC(Cc2cccc(F)c2)C(=O)O)nc1-c1ccc(Cl)c(Cl)c1` (stereo not shown) [I-22], no more than 1000 nM. For `CC(C)Cc1sc(NCC(C(=O)O)N(C)Cc2ccccc2)nc1-c1ccc(Cl)c(Cl)c1` (stereo not shown) [I-114, 2-(benzyl(methyl)amino)-3-(4-(3,4-dichlorophenyl)-5-isobutylthiazol-2-ylamino)propanoic acid], the IC50 was 1000 to 10000 nM. The value for `CC(C)Cc1sc(N(Cc2ccccc2)CC(O)C(=O)O)nc1-c1ccc(Cl)c(Cl)c1` (stereo not shown) [I-190, 3-(benzyl(4-(3,4-dichlorophenyl)-5-isobutylthiazol-2-yl)amino)-2-hydroxypropanoic acid] was no more than 1000 nM.

`CC(=O)NC(CNc1nc(-c2ccc(Cl)c(Cl)c2)c(CC(C)C)s1)C(=O)O` (stereo not shown) [I-140] displayed an IC50 greater than 10000 nM. `CNC(=O)c1cccc(CC(CNc2nc(-c3ccc(Cl)c(Cl)c3)c(CC(C)C)s2)C(=O)O)c1` (stereo not shown) [I-169] had an IC50 of 1000 to 10000 nM. Take `CC(C)Cc1sc(N(CCC(=O)O)Cc2ccccc2Cl)nc1-c1ccc(Cl)c(Cl)c1` [I-108]: the IC50 was no more than 1000 nM.

The compound `CC(C)Cc1sc(N(CCC(=O)O)Cc2ccccc2)nc1-c1ccc(Oc2ccccc2)c(Cl)c1` [I-103] showed an IC50 of no more than 1000 nM. The value for `COc1ccc(CC(CNc2nc(-c3ccc(Cl)c(Cl)c3)c(CC(C)C)s2)C(=O)O)cn1` (stereo not shown) [I-163] was 1000 to 10000 nM.
